Measurements published in patent US7507734B2, “Pyridazinone derivatives” (Aventis Pharma S.A., priority 2004, dated 2009).

biological target: CDK2/Cyclin E kinase (Homo sapiens, UniProt P24941); assay: CDK2/Cyclin E Flashplate Assay: 96-well format; format: biochemical; settings: streptavidin-coated flashplate, biotinylated-Rb peptide substrate 10 μM, 33PγATP/ATP 1 μM, CDK2/Cyclin E 20 nM, 30 minute at 30° C., 1% DMSO
Protocol: Functional Measurements for Determination of IC50-Values
CDK2/Cyclin E Flashplate Assay: 96-Well Format
A 96-well streptavidin-coated flashplate is used to assay potency of compounds according formula (I) against CDK2/Cyclin E kinase. To carry out the assay, biotinylated-Rb peptide substrate (Biotin-[…]-OH) is solubilized at 1 mM in kinase buffer (Hepes 50 mM, NaCI 1 mM, MgCI2 5mM pH 7.5) as a stock solution conserved at −20° C. in aliquots of 110 μl. The day of the experiment, an aliquot of this solution is thawed and diluted to 14.3 μM in kinase buffer, containing 1 mM dithithreitol (DTT) added in the buffer extemporarily.
70 μl of this solution is added in each well of the flashplate in order to achieve a final concentration of 10 μM (100 μl reactionnal volume). Serial dilutions of inhibitors are prepared in DMSO from 10 mM stock solutions in order to achieve 1000 μM, 333.3 μM, 111.1 μM, 37.03 μM, 12.35 μM, 4.11 μM and 1.37 μM and all rediluted in kinase buffer+DTT in order to achieve 100 μM, 33.3 μM, 11.1 μM, 3.7 μM, 1.24 μM, 0.41 μM and 0.14 μM in DMSO 10% buffer (vol/vol). 10 μl of each of these solutions (or 10 μl of buffer+DTT for controls) are transferred to the testplate wells in order to achieve 10 μM, 3.33 μM, 1.11 μM, 0.37 μM, 0.12 μM, 0.04 μM and 0.01 μM as final concentrations, 1% DMSO (vol/vol). In each well, 10 μl of a solution of a mix of ^33PγATP/ATP are added in order to achieve 1 μM final concentration and a total of 1 μCi. The kinase reaction is initiated by addition of 10 μl of a solution at 200 nM of CDK2/Cyclin E in kinase buffer+DTT (or buffer+DTT for blanks) in order to achieve 20 nM final concentration. After addition of each reagent, the test-plate is shaken. The plates are incubated 30 minute at 30° C. with a shaking at 650 rpm. At the end of the incubation, the plates are washed 3 times with 300 μl of PBS (without calcium and magnesium) per well. The incorporation of ^33P to the peptide is measured by scintillation counting.

| Compound | IC50 [nM] |
| --- | --- |
| CCN(CC)CCOc1ccc2cc(-c3cc(-c4ccncc4)n[nH]c3=O)[nH]c2c1 [Example 20, 4-[6-(2-Diethylamino-ethoxy)-1H-indol-2-yl]-6-pyridin-4-yl-2H-pyridazin-3-one] | 20 |
| O=c1[nH]nc(-c2ccc(O)cc2)cc1-c1cc2ccccc2[nH]1 [Example 2, 6-(4-Hydroxy-phenyl)-4-(1H-indol-2-yl)-2H-pyridazin-3-one] | 33 |

Continued, values first:

| IC50 [nM] | Compound |
| --- | --- |
| 35 | CN(C)CCCOc1ccc2[nH]c(-c3cc(-c4ccncc4)n[nH]c3=O)cc2c1 [Example 30, 4-[5-(3-Dimethylamino-propoxy)-1H-indol-2-yl]-6-pyridin-4-yl-2H-pyridazin-3-one] |
| 26 | Cc1ccc2[nH]c(-c3cc(-c4ccncc4)n[nH]c3=O)cc2c1 [Example 14, 4-(5-Methyl-1H-indol-2-yl)-6-pyridin-4-yl-2H-pyridazin-3-one] |
| 48 | O=c1[nH]nc(-c2ccncc2)cc1-c1cc2ccc(OCc3ccccc3)cc2[nH]1 [Example 23, 4-(6-Benzyloxy-1H-indol-2-yl)-6-pyridin-4-yl-2H-pyridazin-3-one] |
